The values below come from patent US20130338061A1, “Salts and Polymorphs of Sulfamide NS3 Inhibitors” (priority 2010, published 2013).

The target of experiment [1] is HCV NS3-4A serine protease (full-length NS3-4A protein, genotype 1a, strain HCV-1) (Hepatitis C virus genotype 1a, UniProt P26664). As to the kind of experiment: HCV NS3-4A protease assay. Type of experiment: biochemical. The settings on record: fluorogenic peptide substrate. As to the method: The inhibitory activity of Compound X against HCV NS3-4A serine protease is determined in a homogenous assay using the full-length NS3-4A protein (genotype 1a, strain HCV-1) and a commercially available internally-quenched fluorogenic peptide substrate as described by Taliani, M., et al. 1996 Anal. Biochem. 240:60-67, which is incorporated by reference in its entirety.
HCV NS3-4A serine protease (full-length NS3-4A protein, genotype 1a, strain HCV-1), sequence (P26664 1658-1711): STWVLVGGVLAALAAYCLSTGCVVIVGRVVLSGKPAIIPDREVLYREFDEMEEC
HCV NS3-4A serine protease (full-length NS3-4A protein, genotype 1a, strain HCV-1), sequence (P26664 1027-1657): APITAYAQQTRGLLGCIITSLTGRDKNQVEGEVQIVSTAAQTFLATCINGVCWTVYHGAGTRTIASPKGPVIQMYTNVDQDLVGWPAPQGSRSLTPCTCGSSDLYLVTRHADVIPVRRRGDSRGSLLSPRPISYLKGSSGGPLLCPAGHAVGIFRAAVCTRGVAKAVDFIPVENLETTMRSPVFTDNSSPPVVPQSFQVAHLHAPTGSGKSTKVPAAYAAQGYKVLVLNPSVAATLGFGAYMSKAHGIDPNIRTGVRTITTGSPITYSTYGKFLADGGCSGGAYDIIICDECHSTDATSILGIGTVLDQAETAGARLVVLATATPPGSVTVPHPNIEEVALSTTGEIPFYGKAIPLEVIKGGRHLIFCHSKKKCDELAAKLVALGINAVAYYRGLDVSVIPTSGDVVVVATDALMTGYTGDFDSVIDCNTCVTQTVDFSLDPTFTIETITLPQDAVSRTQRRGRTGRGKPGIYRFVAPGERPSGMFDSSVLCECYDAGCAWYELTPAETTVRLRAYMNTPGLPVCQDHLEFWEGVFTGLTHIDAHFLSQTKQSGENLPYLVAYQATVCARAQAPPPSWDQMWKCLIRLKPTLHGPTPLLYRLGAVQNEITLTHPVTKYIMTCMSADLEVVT

The subject of experiment [2] is subgenomic genotype 1b HCV replicon cell line (Huh-Luc/neo-ET). As to the kind of experiment: Luciferase-based HCV replicon assay. Type of experiment: cell-based. The settings on record: Hepatitis C virus; Huh-Luc/neo-ET replicon cells, 48-h treatment, 10% FBS; read-out: IC50 in replicon assay (luciferase activity reduced by 50%). The procedure: The antiviral activity and cytotoxicity of Compound X is determined using a subgenomic genotype 1b HCV replicon cell line (Huh-Luc/neo-ET) containing a luciferase reporter gene, the expression of which is under the control of HCV RNA replication and translation. Briefly, 5,000 replicon cells are seeded in each well of 96-well tissue culture plates and are allowed to attach in complete culture media without G418 overnight. On the next day, the culture media are replaced with media containing serially diluted Compound X in the presence of 10% FBS and 0.5% DMSO. After a 48-h treatment with the compound, the remaining luciferase activities in the cells are determined using BriteLite reagent (Perkin Elmer, Wellesley, Mass.) with a LMaxII plate reader (Molecular Probe, Invitrogen). Each data point represents the average of four replicates in cell culture. IC50 is the concentration of the compound at which the luciferase activity in the replicon cells is reduced by 50%. The cytotoxicity of the compound is evaluated using an MTS-based cell viability assay.

As to `CC[C@@H]1C[C@]1(NC(=O)[C@@H]1C[C@@]2(CN1C(=O)[C@@H](NC(=O)[C@@H](NC(=O)[C@@H]1CCCCN1C(C)C)C1CCCCC1)C(C)(C)C)C(C)(C)C21CCC1)C(=O)NS(=O)(=O)N1CCCC1` [Compound X, (5R,8S)-7-[(2S)-2-{[(2S)-2-cyclohexyl-2-({[(2S)-1-isopropylpiperidin-2-yl]carbonyl}amino)acetyl]amino}-3,3-dimethylbutanoyl]-N-{(1R,2R)-2-ethyl-1-[(pyrrolidin-1-ylsulfonyl)carbamoyl]cyclopropyl}-10,10-dimethyl-7-azadispiro[3.0.4.1]decane-8-carboxamide], the 50% inhibitory concentration (IC50) is 4.5 nM in experiment [1] and under 100 nM in experiment [2].
